# Source: patent US20230053540A1, “TREATMENT OF LIVER INJURY” (Massachusetts Institute of Technology, priority 2019, published 2023)
# Test system: hepatocytes
# Experiment: Seq-Well scRNA-Seq of hepatocytes after APAP overdose (signature scores, DEG vs untreated)
# Type: in vivo, mouse
# Details: A6 vs UT
compound,measurement,value
"CC(=O)Nc1ccc(O)cc1 [APAP, acetaminophen]",Plbd2 pct.1,0.344
same,Plcxd2 A6logFC,−0.2752
same,Plcxd2 avg_logFC,−0.2752
same,Plcxd2 pct.1,0.162
same,Plec avg_logFC,0.4675
same,Plec pct.1,0.422
same,Plek avg_logFC,0.3089
same,Plek pct.1,0.11
same,Plin2 avg_logFC,1.461
same,Plin5 avg_logFC,0.2963
same,Plin5 pct.1,0.456
same,Plscr1 avg_logFC,0.4445
same,Pmpcb avg_logFC,−0.2636
same,Pmpcb pct.1,0.356
same,Pnkd A6logFC,−0.2928
same,Pon1 avg_logFC,−0.6858
same,Ppan avg_logFC,0.2724
same,Ppan pct.1,0.255
same,Ppara avg_logFC,−0.2871
same,Ppara pct.1,0.234
same,Ppib avg_logFC,−0.5897
same,Ppip5k2 A6logFC,0.3209
same,Ppip5k2 avg_logFC,0.3209
same,Ppip5k2 pct.1,0.344
same,Ppl avg_logFC,0.8798
same,Ppm1g A6logFC,0.2522
same,Ppm1g avg_logFC,0.2522
same,Ppm1g pct.1,0.358
same,Ppm1k avg_logFC,−0.5584
same,Ppp1r3b avg_logFC,−0.4027
same,Ppp1r3b pct.1,0.098
same,Ppp2r5a avg_logFC,−0.2605
same,Ppp2r5a pct.1,0.43
same,Prdx1 avg_logFC,−0.5292
same,Prdx4 avg_logFC,−0.4176
same,Prdx4 pct.1,0.372
same,Proc A6logFC,−0.2707
same,Prpf19 A6logFC,0.2588
same,Prpf19 avg_logFC,0.2588
same,Prpf19 pct.1,0.432
same,Prrc2c avg_logFC,0.4393
same,Prrc2c pct.1,0.415
same,Psap A6logFC,0.2578
same,Psap avg_logFC,0.2578
same,Psap pct.1,0.556
same,Psat1 avg_logFC,0.3012
same,Psen2 avg_logFC,−0.9474
same,Psma1 A6logFC,−0.2567
same,Psma1 avg_logFC,−0.2567
same,Psma1 pct.1,0.353
same,Psma6 A6logFC,−0.3035
same,Psma6 avg_logFC,−0.3035
same,Psma6 pct.1,0.501
same,Psme1 avg_logFC,−0.394
same,Psme1 pct.1,0.26
same,Ptpmt1 A6logFC,−0.256
same,Ptpmt1 avg_logFC,−0.256
same,Ptpmt1 pct.1,0.372
same,Ptpn1 avg_logFC,0.4163
same,Ptpn1 pct.1,0.353
same,Ptpn11 A6logFC,0.2778
same,Ptpn11 avg_logFC,0.2778
same,Ptpn11 pct.1,0.37
same,Ptprc avg_logFC,0.4165
same,Pvrl2 A6logFC,−0.2613
same,Qdpr avg_logFC,−0.5236
same,Qdpr pct.1,0.606
same,Rab6a A6logFC,0.3234
same,Rabac1 A6logFC,−0.266
same,Rabac1 avg_logFC,−0.266
same,Rabac1 pct.1,0.346
same,Rad54l2 avg_logFC,0.3887
same,Rad54l2 pct.1,0.325
same,Ranbp2 avg_logFC,0.5985
same,Rangap1 A6logFC,0.2962
same,Rangap1 avg_logFC,0.2962
same,Rangap1 pct.1,0.387
same,Rap1b A6logFC,0.3408
same,Rap1b avg_logFC,0.3408
same,Rap1b pct.1,0.406
same,Rarres2 avg_logFC,−0.5522
same,Rassf3 A6logFC,0.2912
same,Rassf3 avg_logFC,0.2912
same,Rassf3 pct.1,0.422
same,Rbm25 A6logFC,0.4215
same,Rbm39 A6logFC,0.2657
same,Rbm39 avg_logFC,0.2657
same,Rbm39 pct.1,0.506
same,Rcan1 avg_logFC,0.7073
same,Rdh7 avg_logFC,−0.4186
same,Reep3 A6logFC,0.409
same,Reep3 avg_logFC,0.409
same,Reep3 pct.1,0.535
same,Rell1 avg_logFC,0.5912
same,Retnlg avg_logFC,0.3751
same,Retsat avg_logFC,0.4911
same,Rgs2 avg_logFC,0.3957
same,Rgs2 pct.1,0.138
same,Riok3 A6logFC,0.2916
same,Riok3 avg_logFC,0.2916
same,Riok3 pct.1,0.43
same,Rmnd5a A6logFC,0.3189
same,Rmnd5a avg_logFC,0.3189
same,Rmnd5a pct.1,0.47
same,Rnase4 avg_logFC,−1.049
same,Rnaseh2c A6logFC,−0.3257
same,Rnd3 avg_logFC,0.3655
same,Rnd3 pct.1,0.284
same,Rnf144a avg_logFC,0.313
same,Rnf144a pct.1,0.177
same,Rnf169 A6logFC,0.334
same,Rnf169 avg_logFC,0.334
same,Rnf169 pct.1,0.315
same,Rock1 A6logFC,0.2608
same,Rock1 avg_logFC,0.2608
same,Rock1 pct.1,0.413
same,Rock2 avg_logFC,0.5941
same,Romo1 A6logFC,−0.3359
same,Rora avg_logFC,0.6444
same,Rpl13a avg_logFC,−0.3815
same,Rpl13a pct.1,0.704
same,Rpl13 avg_logFC,−0.2988
same,Rpl13 pct.1,0.294
same,Rpl14 A6logFC,−0.2776
same,Rpl14 avg_logFC,−0.2776
same,Rpl14 pct.1,0.372
same,Rpl34 A6logFC,−0.2976
same,Rpl36al avg_logFC,−0.4755
same,Rpl36al pct.1,0.284
same,Rplp1 avg_logFC,−0.5047
same,Rplp1 pct.1,0.449
same,Rps15 avg_logFC,−0.4552
same,Rps15 pct.1,0.301
same,Rps18 avg_logFC,−0.4885
same,Rps18 pct.1,0.337
same,Rps24 A6logFC,−0.2625
same,Rps24 avg_logFC,−0.2625
same,Rps24 pct.1,0.453
same,Rps27l avg_logFC,−0.8659
same,Rraga A6logFC,0.2626
same,Rraga avg_logFC,0.2626
same,Rraga pct.1,0.337
same,Rsl1d1 A6logFC,0.3461
same,S100a8 avg_logFC,1.128
same,S100a9 avg_logFC,1.343
same,Saa4 avg_logFC,−0.571
same,Sat1 avg_logFC,0.6887
same,Sc5d avg_logFC,−0.5009
same,Sc5d pct.1,0.58
same,Scaf11 A6logFC,0.3598
same,Sco2 avg_logFC,−0.2605
same,Sco2 pct.1,0.353
same,Scp2 avg_logFC,−0.5191
same,Sdad1 avg_logFC,0.3124
same,Sdad1 pct.1,0.289
same,Sdc3 pct.1,0.103
same,Sdc4 avg_logFC,0.6196
same,Sdr9c7 A6logFC,−0.26
same,Sec61b A6logFC,−0.2903
same,Sec1412 avg_logFC,−0.7897
same,Selenbp1 avg_logFC,−0.4937
same,Selenbp1 pct.1,0.401
same,Selenbp2 avg_logFC,−1.009
same,Selo A6logFC,−0.2574
same,Selo avg_logFC,−0.2574
same,Selo pct.1,0.217
same,Sema4g A6logFC,−0.2505
same,Sema4g avg_logFC,−0.2505
same,Sema4g pct.1,0.27
same,Serbp1 A6logFC,0.3227
same,Serbp1 avg_logFC,0.3227
same,Serbp1 pct.1,0.659
same,Serpina1a avg_logFC,−0.3785
same,Serpina1e avg_logFC,−0.2684
same,Serpina1e pct.1,0.99
same,Serpina3m avg_logFC,0.9674
same,Serpina3n avg_logFC,0.8483
same,Serpina12 avg_logFC,−0.4534
same,Serpina12 pct.1,0.232
same,Serpina1d avg_logFC,−0.289
same,Serpina1d pct.1,0.926
same,Sf3b1 A6logFC,0.2888
same,Sf3b1 avg_logFC,0.2888
same,Sf3b1 pct.1,0.508
same,Sgk1 A6logFC,0.2843
same,Shmt1 avg_logFC,−0.3932
same,Shmt1 pct.1,0.339
same,Sigmar1 A6logFC,−0.3055
same,Slc4a4 avg_logFC,0.4203
same,Slc4a4 pct.1,0.513
same,Slc10a2 avg_logFC,0.299
same,Slc10a2 pct.1,0.255
same,Slc16a2 A6logFC,−0.252
same,Slc16a2 avg_logFC,−0.252
same,Slc16a2 pct.1,0.255
same,Slc16a6 avg_logFC,0.9114
same,Slc16a10 A6logFC,−0.2548
same,Slc16a10 avg_logFC,−0.2548
same,Slc16a10 pct.1,0.196
same,Slc20a1 avg_logFC,0.3572
same,Slc20a1 pct.1,0.284
same,Slc22a1 avg_logFC,−0.7979
